Source: US20090036540A1, “Guanylhydrazones in Methods of Treatment or Diagnosis as Modulators of Signal Transduction” (Cytokine PharmaSciences, Inc., priority 2003, published 2009)

Legend:
[1] = test system: 4/4 macrophages; experiment: Western blot of LPS-stimulated 4/4 macrophages for MAPK signaling molecules; format: cell-based, murine; settings: 0.1 and 1 μM, 1 hour pre-incubation, LPS 100 ng/ml 15 minutes
Description: 4/4 macrophages were used for in vitro experiments and western blot analysis. An in vitro kinase assay was performed to reconfirm findings obtained with western blotting. […] 4/4 macrophages were grown to 70% confluence, pre-incubated for 1 hour with Semapimod (0.1 and 1 μM) and stimulated with LPS (100 ng/ml) for 15 minutes. Cells were harvested in sample buffer and whole cell lysates were loaded onto 10% SDS-PAGE and subsequently transferred to a PVDF membrane. Blots were stained with phospho-specific antibodies for various MAPK signaling molecules. […] Importantly, pRaf protein levels and pPak, upstream of Raf, were not affected due to Semapimod incubation. […] FIG. 6 Western blot: Reduced pP38, pJnk, pErk in 4/4 macrophages treated with Semapimod (1 and 0.1 μM) in LPS present conditions was seen. Moreover, the phosphorylation status of MKK4/7 (upstream of Jnk), and Mek1/2 (upstream of Erk) was affected due to Semapimod treatment. pRaf expression was not influenced by Semapimod. To test for equal loading, western blots were analyzed for actin expression. Similar results were obtained in three independent experiments.

[2] = CRP serum levels of Crohn's disease patients in the Semapimod pilot study; format: in vivo, human
From the text: FIGS. 9A and B show the IHC analysis of Crohn's disease patients who participated in the Semapimod pilot study. […] CRP levels of patient #12 were not affected by Semapimod (e.g. nonresponder). Importantly, pMek1/2 expression was also not affected by Semapimod in this nonresponder. […] This finding correlates with the low CRP levels at baseline (FIG. 9B).

[3] = test system: Peripheral Blood Mononuclear Cells; experiment: PepChip kinome array: in vitro phosphorylation of peptide array by lysates of LPS-stimulated PBMCs; format: cell-based, human; settings: PBMC lysate, 1.0 μM CNI-1493, 100 ng/ml LPS
Description: Peripheral Blood Mononuclear Cells (PBMCs) were isolated from peripheral blood from healthy volunteers using standard density-gradient centrifugation over Ficoll-Paque Plus (Amersham Pharmacia Biotech AB, Uppsala, Sweden) after washing in resuspension in IMDM supplemented with 10% FBS, penicillin, streptomycin and amphotericin (hereafter referred to as complete IMDM).
For kinome array samples, 10^7 PBMCs were suspended in 5 ml media (IMDM supplemented with 1.0% human serum). LPS stimulation consisted of a […] (37° C., 5% CO2) with 100 ng/ml LPS (E. coli, serotype 0111:B4). CNI treated PBMCs were maintained in media dosed with 1.0 μM CNI-1493 (Cytokine PharmaSciences, Inc.) 1 hour before and during incubation for LPS stimulation. Stimulations were terminated by an ice-cold PBS wash. PBMCs were lysed in 200 μl cell lysis buffer (20 mM Tris-HCl (pH 7.5), 150 mM NaCl, 1 mM Na2EDTA, 1 mM EGTA, 1% Triton, 2.5 mM sodium pyrophosphate, 1 mM MgCl2, 1 mM beta-glycerophosphate, 1 mM Na3VO4, 1 mM NaF, 1 μg/ml leupeptin, 1 μg/ml aprotinin, 1 mM PMSF) and the volume of the cell lysate were equalised with dH2O. The cell lysates were subsequently cleared on a 0.22 μm filter. PepChip incubation mix was produced by adding 10 μl of filter-cleared activation mix (50% glycerol, 50 μM ATP, 0.05% v/v Brij-35, 0.25 mg/ml BSA, ^33P-γ-ATP (1000 kBq)). Next, the PepChip mix is added onto the chip and the chip is kept at 37° C. in a humidified stove for 90 minutes. Subsequently, the PepChip was washed once with TBST, twice in 2M NaCl and twice in demineralised H2O and air-dry the PepChip slips. The experiments were performed three times in duplicate. The average inter-experimental variance in relative values was less than 5% for all spots.
The chips were exposed to a phosphoimager plate for 72 hours and the spots were analysed on AIDA analysing software. For graphical visualisation of the spots in FIG. 2 the data of four arrays was averaged to eliminate false positives.

C/C(=N\NC(=N)N)c1cc(NC(=O)CCCCCCCCC(=O)Nc2cc(/C(C)=N/NC(=N)N)cc(/C(C)=N/NC(=N)N)c2)cc(/C(C)=N/NC(=N)N)c1 [Semapimod]
expression of pMKK4/7 [1]: reduced expression | expression of pMek1/2 [1]: reduced expression | pPak, upstream of Raf [1]: not affected | pRaf protein levels [1]: not affected | phosphorylated-Erk1/2 [1]: decrease | phosphorylated-Jnk [1]: decrease | phosphorylated-P38 [1]: decrease | CRP, responders ([2]; Crohn's disease patients n=5, all responders): CRP decrease | CRP levels, nonresponder ([2]; patient #12): not affected | LPS + CNI: peptide phosphorylation, Kinase p34cdc2, Substrate Vimentin ([3]; Control 192, LPS 214): 300 | LPS + CNI: peptide phosphorylation, Kinase CKII, Substrate Lamin B R ([3]; Control 214, LPS 1736): 250 | LPS + CNI: peptide phosphorylation, Kinase p34cdc2, Substrate c-Src ([3]; Control 230, LPS 248): 270 | LPS + CNI: peptide phosphorylation, Kinase CKII, Substrate TOPII ([3]; Control 231, LPS 900): 900 | LPS + CNI: peptide phosphorylation, Kinase CKII, Substrate Lamin D ([3]; Control 242, LPS 822): 320 | LPS + CNI: peptide phosphorylation, Kinase Auto, Substrate PKG ([3]; Control 246, LPS 8100): 320 | LPS + CNI: peptide phosphorylation, Kinase GRK, Substrate Tau ([3]; Control 248, LPS 230): 250 | LPS + CNI: peptide phosphorylation, Kinase JAK, Substrate STAT1a/b ([3]; Control 248, LPS 7704): 231 | LPS + CNI: peptide phosphorylation, Kinase Cdc2, Substrate CKII ([3]; Control 268, LPS 1728): 265 | LPS + CNI: peptide phosphorylation, Kinase CytoK Rec, Substrate FPS ([3]; Control 270, LPS 5512): 265 | LPS + CNI: peptide phosphorylation, Kinase CK II?, Substrate TOPII ([3]; Control 274, LPS 280): 300 | LPS + CNI: peptide phosphorylation, Kinase PKA, Substrate MBP ([3]; Control 280, LPS 1250): 265 | LPS + CNI: peptide phosphorylation, Kinase Scr-family?, Substrate PTP-2C ([3]; Control 287, LPS 5960): 250 | LPS + CNI: peptide phosphorylation, Kinase PKA, Substrate HSP27 ([3]; Control 288, LPS 1072): 298 | LPS + CNI: peptide phosphorylation, Kinase PKC, Substrate HSP27 ([3]; Control 291, LPS 280): 300 | LPS + CNI: peptide phosphorylation, Kinase PKA, Substrate v-Rel ([3]; Control 291, LPS 2574): 291 | LPS + CNI: peptide phosphorylation, Kinase GSK3, Substrate GS ([3]; Control 312, LPS 320): 250 | LPS + CNI: peptide phosphorylation, Kinase p34cdc2, Substrate CKII ([3]; Control 320, LPS 560): 291 | LPS + CNI: peptide phosphorylation, Kinase PKA, Substrate Tau ([3]; Control 340, LPS 340): 250 | LPS + CNI: peptide phosphorylation, Kinase PKA, Substrate c-Rel ([3]; Control 421, LPS 250): 261 | LPS + CNI: peptide phosphorylation, Kinase p34cdc2, Substrate AP-1 ([3]; Control 460, LPS 548): 274 | LPS + CNI: peptide phosphorylation, Kinase PKA, Substrate MBP ([3]; Control 536, LPS 822): 248 | LPS + CNI: peptide phosphorylation, Kinase CaM-II, Substrate MBP ([3]; Control 600, LPS 265): 680 | LPS + CNI: peptide phosphorylation, Kinase PKA, Substrate GS ([3]; Control 795, LPS 7980): 340 | LPS + CNI: peptide phosphorylation, Kinase PKA/Ca2+, Substrate Trp-5-MO ([3]; Control 1164, LPS 23925): 1305 | LPS + CNI: peptide phosphorylation, Kinase PKA, Substrate GS ([3]; Control 1440, LPS 1020): 3450 | LPS + CNI: peptide phosphorylation, Kinase PKC, Substrate Lamin B1 ([3]; Control 2016, LPS 268): 1072 | LPS + CNI: peptide phosphorylation, Kinase PKC, Substrate MBP ([3]; Control 2376, LPS 198): 319 | LPS + CNI: peptide phosphorylation, Kinase PKA, Substrate P450 ([3]; Control 2412, LPS 19980): 265 | LPS + CNI: peptide phosphorylation, Kinase PKC, Substrate ACC-a ([3]; Control 2750, LPS 10692): 861 | LPS + CNI: peptide phosphorylation, Kinase CKII, Substrate TOPII ([3]; Control 3836, LPS 320): 291
